Assay results: the supplement of paper PMC12533247

What was measured:
[1] = test system: HSV-1 K26-GFP infected 3D skin equivalent; experiment: % activity on HSV-1 GFP signal (0 = infected DMSO control, -100 = uninfected control); higher = higher signal (negative = inhibition / toxicity); settings: time (h post infection): 48
Description: (§1)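 Triplicate dose-response (0.04 to 10 uM) of 11 top compounds in 3D bioprinted skin equivalents (submerged and ALI models) infected with GFP-HSV-1 K26 at MOI 0.1 and fixed at 48 hpi. GFP (virus) and tdTomato (fibroblast viability) signals are normalised to per-plate controls.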

[2] = test system: HSV-1 K26-GFP infected primary human skin cells; experiment: % change of HSV-1 GFP signal vs untreated infected cells; higher = less antiviral inhibition
Description: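 2D primary donor-derived keratinocytes (read at 20 hpi) and donor-matched dermal fibroblasts (read at 48 hpi) infected with GFP-HSV-1 K26 at MOI 1 and treated 1 h later with compound dilutions. IncuCyte GFP integrated intensity is normalised by subtracting mock-infected wells and dividing by untreated infected wells, shown as % change (-100 = full inhibition).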

[3] = test system: HSV-1 K26-GFP infected 3D skin equivalent; experiment: % change of tdTomato fibroblast signal relative to infected DMSO control; higher = higher signal (negative = inhibition / toxicity); settings: time (h post infection): 48
Description: as §1

[4] = test system: HSV-1 K26-GFP infected primary human skin cells; experiment: % change of HSV-1 GFP signal vs untreated infected cells; higher = less antiviral inhibition; settings: cell type: primary dermal fibroblasts, time (h post infection): 48
Description: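 2D primary donor-derived dermal fibroblasts infected with GFP-HSV-1 K26 at MOI 1, treated 1 h later with compound dilutions and read at 48 hpi on IncuCyte. GFP integrated intensity is normalised to mock-infected and untreated infected wells (% change; -100 = full inhibition).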

O=C(Nc1ccc([N+](=O)[O-])cc1Cl)c1cc(Cl)ccc1O [Niclosamide]
Settings	% activity on HSV-1 GFP signal [%]	% change of HSV-1 GFP signal [%]	% change of tdTomato fibroblast signal [%]
[1], 0.041152 µM, model: ALI	-0.742	–	–
[1], 0.041152 µM, model: submerged	-3.85	–	–
[1], 0.123457 µM, model: ALI	-58.6	–	–
[1], 0.123457 µM, model: submerged	-3.15	–	–
[1], 0.37037 µM, model: ALI	-102	–	–
[1], 0.37037 µM, model: submerged	-59.6	–	–
[1], 1.111111 µM, model: ALI	-99.3	–	–
[1], 1.111111 µM, model: submerged	-88.3	–	–
[1], 3.33333 µM, model: ALI	-103	–	–
[1], 3.33333 µM, model: submerged	-92.9	–	–
[1], 10 µM, model: ALI	-98.7	–	–
[1], 10 µM, model: submerged	-97.1	–	–
[3], 0.041152 µM, model: ALI	–	–	8.37
[3], 0.041152 µM, model: submerged	–	–	-8.01
[3], 0.123457 µM, model: ALI	–	–	0.996
[3], 0.123457 µM, model: submerged	–	–	-14.3
[3], 0.37037 µM, model: ALI	–	–	-9.97
[3], 0.37037 µM, model: submerged	–	–	-34
[3], 1.111111 µM, model: ALI	–	–	-7.62
[3], 1.111111 µM, model: submerged	–	–	-44.6
[3], 3.33333 µM, model: ALI	–	–	-10.3
[3], 3.33333 µM, model: submerged	–	–	-44.5
[3], 10 µM, model: ALI	–	–	-8.58
[3], 10 µM, model: submerged	–	–	-47.05
[4], 0.003 µM, donor: 3	–	15.6	–
[4], 0.003 µM, donor: 4	–	-6.77	–
[4], 0.0091 µM, donor: 3	–	8.69	–
[4], 0.0091 µM, donor: 4	–	-8.38	–
[4], 0.0274 µM, donor: 3	–	9.83	–
[4], 0.0274 µM, donor: 4	–	-13.9	–
[4], 0.0823 µM, donor: 3	–	-4.14	–
[4], 0.0823 µM, donor: 4	–	-18.7	–
[4], 0.2469 µM, donor: 3	–	-45.2	–
[4], 0.2469 µM, donor: 4	–	-48.5	–
[4], 0.7407 µM, donor: 3	–	-76.3	–
[4], 0.7407 µM, donor: 4	–	-63.1	–
[4], 2.2222 µM, donor: 3	–	-89.3	–
[4], 2.2222 µM, donor: 4	–	-95.5	–
[4], 6.6667 µM, donor: 3	–	-99.57	–
[4], 6.6667 µM, donor: 4	–	-99.828	–
[4], 20 µM, donor: 3	–	-100.1	–
[4], 20 µM, donor: 4	–	-99.921	–
[4], 60 µM, donor: 3	–	-100.1	–
[4], 60 µM, donor: 4	–	-99.98	–

% change of HSV-1 GFP signal [%], [2]
Settings	0.003 µM	0.0091 µM	0.0274 µM	0.0823 µM	0.2469 µM	0.7407 µM	2.2222 µM	6.6667 µM	20 µM	60 µM
cell type: primary dermal fibroblasts, donor: 5, time (h post infection): 48	-6.14	-7.3	-10.1	-19.9	-37	-51.4	-90	-99.53	-99.789	-99.78
cell type: primary keratinocytes, donor: 3, time (h post infection): 20	4.62	3.94	6.19	9.78	4.16	0.034	-16.7	-24.7	-62.7	-81.3
cell type: primary keratinocytes, donor: 4, time (h post infection): 20	-0.953	-7.59	-0.315	-0.334	-9.22	-11.5	-22.6	-42.3	-61.2	-95.4
cell type: primary keratinocytes, donor: 5, time (h post infection): 20	2.55	-1.84	0.0858	1.91	2.59	-2.44	-35.9	-52.8	-76.5	-95.1

Cc1nc(N(C)C(=O)Cc2ccc(-c3ccccn3)cc2)sc1S(N)(=O)=O [Pritelivir]
Settings	% activity on HSV-1 GFP signal [%]	% change of HSV-1 GFP signal [%]	% change of tdTomato fibroblast signal [%]
[1], 0.041152 µM, model: ALI	4.25	–	–
[1], 0.041152 µM, model: submerged	-6.28	–	–
[1], 0.123457 µM, model: ALI	-38.2	–	–
[1], 0.123457 µM, model: submerged	-11	–	–
[1], 0.37037 µM, model: ALI	-92.9	–	–
[1], 0.37037 µM, model: submerged	-37.4	–	–
[1], 1.111111 µM, model: ALI	-106	–	–
[1], 1.111111 µM, model: submerged	-83.7	–	–
[1], 3.33333 µM, model: ALI	-106	–	–
[1], 3.33333 µM, model: submerged	-96.7	–	–
[1], 10 µM, model: ALI	-102	–	–
[1], 10 µM, model: submerged	-94.6	–	–
[3], 0.041152 µM, model: ALI	–	–	16.3
[3], 0.041152 µM, model: submerged	–	–	11.8
[3], 0.123457 µM, model: ALI	–	–	6.72
[3], 0.123457 µM, model: submerged	–	–	-3.78
[3], 0.37037 µM, model: ALI	–	–	0.531
[3], 0.37037 µM, model: submerged	–	–	0.74
[3], 1.111111 µM, model: ALI	–	–	-3.11
[3], 1.111111 µM, model: submerged	–	–	-3.09
[3], 3.33333 µM, model: ALI	–	–	-3.08
[3], 3.33333 µM, model: submerged	–	–	-6.25
[3], 10 µM, model: ALI	–	–	12
[3], 10 µM, model: submerged	–	–	-0.666
[4], 0.001 µM, donor: 3	–	4.72	–
[4], 0.001 µM, donor: 4	–	1.2	–
[4], 0.003 µM, donor: 3	–	1.04	–
[4], 0.003 µM, donor: 4	–	-0.451	–
[4], 0.0091 µM, donor: 3	–	-2.12	–
[4], 0.0091 µM, donor: 4	–	-4.4	–
[4], 0.0274 µM, donor: 3	–	-9.3	–
[4], 0.0274 µM, donor: 4	–	-16.7	–
[4], 0.0823 µM, donor: 3	–	-30	–
[4], 0.0823 µM, donor: 4	–	-36.8	–
[4], 0.2469 µM, donor: 3	–	-61	–
[4], 0.2469 µM, donor: 4	–	-74.4	–
[4], 0.7407 µM, donor: 3	–	-81.3	–
[4], 0.7407 µM, donor: 4	–	-91.2	–
[4], 2.2222 µM, donor: 3	–	-90.9	–
[4], 2.2222 µM, donor: 4	–	-99.47	–
[4], 6.6667 µM, donor: 3	–	-93.7	–
[4], 6.6667 µM, donor: 4	–	-99.82	–
[4], 20 µM, donor: 3	–	-98.48	–
[4], 20 µM, donor: 4	–	-99.71	–

% change of HSV-1 GFP signal [%], [2]
Settings	0.001 µM	0.003 µM	0.0091 µM	0.0274 µM	0.0823 µM	0.2469 µM	0.7407 µM	2.2222 µM	6.6667 µM	20 µM
cell type: primary dermal fibroblasts, donor: 5, time (h post infection): 48	-6.88	-8.21	-6.16	-14.2	-21.8	-61.5	-88.3	-99.754	-99.905	-99.853
cell type: primary keratinocytes, donor: 3, time (h post infection): 20	6.78	7.17	4.27	0.771	-17.7	-65.2	-88.8	-97.9	-98.88	-98.8
cell type: primary keratinocytes, donor: 4, time (h post infection): 20	1.71	10.5	3.75	-0.535	-26	-77.35	-95.7	-99.05	-99.54	-99.35
cell type: primary keratinocytes, donor: 5, time (h post infection): 20	3.7	2.94	1.99	-6.85	-31.7	-72.3	-94.1	-99.54	-99.63	-99.66
